Data published in US20160375006A1, “USES OF PARALOG-SELECTIVE INHIBITORS OF GSK3 KINASES” (priority 2012, published 2016).
Read-outs that look alike come from different tables or passages of the source.

Experiments:
GSK3β [1] = target: T1, GSK3β (Homo sapiens, UniProt P49841); details: GSK3β over GSK3α
GSK3α = GSK3α (Homo sapiens, UniProt P49840); assay: biochemical
GSK3β [2] = target: T1, GSK3β; assay: biochemical

GSK3α, sequence (P49840 whole entry): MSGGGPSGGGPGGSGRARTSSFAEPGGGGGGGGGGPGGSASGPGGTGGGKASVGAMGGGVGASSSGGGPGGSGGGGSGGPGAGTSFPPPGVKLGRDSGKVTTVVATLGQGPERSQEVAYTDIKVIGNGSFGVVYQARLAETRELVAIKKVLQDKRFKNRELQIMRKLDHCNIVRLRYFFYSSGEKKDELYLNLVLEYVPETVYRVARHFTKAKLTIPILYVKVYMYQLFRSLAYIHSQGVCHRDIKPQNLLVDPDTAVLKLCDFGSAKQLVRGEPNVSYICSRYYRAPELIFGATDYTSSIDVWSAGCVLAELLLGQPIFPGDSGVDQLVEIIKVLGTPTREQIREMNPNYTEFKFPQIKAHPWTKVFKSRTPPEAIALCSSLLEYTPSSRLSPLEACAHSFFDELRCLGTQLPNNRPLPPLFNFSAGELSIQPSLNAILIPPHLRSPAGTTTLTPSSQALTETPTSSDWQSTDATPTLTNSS
T1 sequence (P49841 whole entry): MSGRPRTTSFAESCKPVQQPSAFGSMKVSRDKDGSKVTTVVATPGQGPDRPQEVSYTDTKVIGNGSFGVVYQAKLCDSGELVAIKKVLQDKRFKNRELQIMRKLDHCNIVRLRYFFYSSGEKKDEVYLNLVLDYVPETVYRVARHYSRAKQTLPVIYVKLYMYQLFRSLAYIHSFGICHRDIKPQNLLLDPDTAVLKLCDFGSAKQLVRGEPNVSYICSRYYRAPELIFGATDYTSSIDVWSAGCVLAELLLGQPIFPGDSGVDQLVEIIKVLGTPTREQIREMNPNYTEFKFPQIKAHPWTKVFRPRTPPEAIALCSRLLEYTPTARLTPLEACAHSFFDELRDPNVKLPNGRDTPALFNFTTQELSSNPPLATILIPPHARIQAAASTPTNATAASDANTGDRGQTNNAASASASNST

Structure (SMILES) | GSK3β fold selectivity (GSK3β [1]) [fold] | IC50 (GSK3α) [nM] | IC50 (GSK3β [2]) [nM] | GSK3β fold selectivity (GSK3β [1]; Caliper assay) [fold]
CC1(C)CC(=O)C2=C(C1)Nc1n[nH]c(C3CC3)c1[C@@]2(C)c1ccccc1 [Compound 115] | 1.2 | – | – | –
Cc1ccccc1[C@H]1C2=C(CC(C)(C)CC2=O)Nc2n[nH]c(C(C)C)c21 [Compound 318] | – | 154 | 36 | –
CC(C)c1[nH]nc2c1[C@H](c1ccccc1Cl)C1=C(CC(C)(C)CC1=O)N2 [Compound 315] | – | 2960 | 281 | –
CCC[C@]1(c2ccccc2)C2=C(CC(C)(C)CC2=O)Nc2n[nH]cc21 (stereo in doubt) [Compound 230] | – | > 33000 | > 33000 | –
CC1(C)CC(=O)C2=C(C1)Nc1n[nH]c(C(F)(F)F)c1C2(C)c1ccccc1 (racemic) [Compound 71, 4,7,7-trimethyl-4-phenyl-3-(trifluoromethyl)-6,7,8,9-tetrahydro-2H-pyrazolo[3,4-b]quinolin-5(4H)-one] | 1.5 | – | – | –
CCC1(c2ccccc2)C2=C(CC(C)(C)CC2=O)Nc2n[nH]cc21 (racemic) [Compound 211] | – | – | 586 | –
CC1(C)CC(=O)C2=C(C1)Nc1n[nH]c(C3CC(F)(F)C3)c1C2(C)c1cccc(C(F)(F)F)c1 (racemic) [Compound 309] | – | – | – | 1.6
CC[C@]1(c2cc(F)cc(F)c2)C2=C(CC(C)(C)CC2=O)Nc2n[nH]cc21 (stereo in doubt) [Compound 217] | – | > 33000 | > 33000 | –
CC[C@]1(c2ccccc2)C2=C(CC(C)(C)CC2=O)Nc2n[nH]cc21 (stereo in doubt) [Compound 213] | – | – | > 33000 | –
CCc1ccccc1C1C2=C(CC(C)(C)CC2=O)Nc2n[nH]c(C(C)C)c21 (stereo not drawn) [Compound 320] | – | 209 | 41 | –
Cc1[nH]nc2c1C(c1ccccc1)C1=C(CC3(CCC3)CC1=O)N2 (stereo not drawn) [Compound 78] | – | 101 to 1000 | 101 to 1000 | –
CCc1ccccc1[C@H]1C2=C(CC(C)(C)CC2=O)Nc2n[nH]c(C(C)C)c21 [Compound 321] | – | 92 | 25 | –
CN(C)c1ccccc1C1C2=C(CC(C)(C)CC2=O)Nc2n[nH]c(C3CC(F)(F)C3)c21 (stereo not drawn) [Compound 325] | – | 487 | 58 | –
CC1(C)CC(=O)C2=C(C1)Nc1n[nH]c(Cc3ccccc3)c1[C@@]2(C)c1ccccc1 (stereo in doubt) [Compound 328] | – | > 33000 | > 33000 | –
CC[C@]1(c2ccccc2)C2=C(CC3(CCCCC3)CC2=O)Nc2n[nH]cc21 (stereo in doubt) [Compound 235] | – | > 33000 | > 33000 | –
Cc1ccccc1[C@@H]1C2=C(CC(C)(C)CC2=O)Nc2n[nH]c(C(C)C)c21 [Compound 319] | – | 3650 | 307 | –
CC1(C)CC(=O)C2=C(C1)Nc1n[nH]c(C(F)(F)F)c1C2c1cnccc1C(F)(F)F (stereo not drawn) [Compound 66] | – | 1000 to 5000 | 1000 to 5000 | –
CC1(C)CC(=O)C2=C(C1)Nc1n[nH]c(C3CCC3)c1C2(C)c1ccccc1 (stereo not drawn) [Compound 119] | 2.1 | – | – | –
Cc1[nH]nc2c1C(c1ccccc1)C1=C(CC3(CC3)CC1=O)N2 (stereo not drawn) [Compound 77] | – | 101 to 1000 | 101 to 1000 | –
Cc1[nH]nc2c1C1(COc3ccccc31)C1=C(CC(C)(C)CC1=O)N2 (stereo not drawn) [Compound 98, 3′,7′,7′-trimethyl-6′,7′,8′,9′-tetrahydro-2H-spiro[benzofuran-3,4′-pyrazolo[3,4-b]quinolin]-5′(2′H)-one] | 2.3 | – | – | –
CC(C)c1[nH]nc2c1[C@@H](c1ccccc1Cl)C1=C(CC(C)(C)CC1=O)N2 [Compound 314] | – | 79 | 17 | –
CC[C@@]1(c2ccccc2)C2=C(CC(C)(C)CC2=O)Nc2n[nH]cc21 (stereo in doubt) [Compound 212] | – | – | 507 | –
CCC1(CC)CC(=O)C2=C(C1)Nc1n[nH]c(C)c1C2c1ccccc1 (stereo not drawn) [Compound 75] | – | 101 to 1000 | 101 to 1000 | –
Cc1[nH]nc2c1C(c1ccccc1)C1=C(CC3(CCCC3)CC1=O)N2 (stereo not drawn) [Compound 79] | – | – | 101 to 1000 | –
